Values joined by “and” are separate entries in the source; they are usually repeats but may differ in a detail not shown here. Equal values may be shown once.

Assay [1] concerns non-expressing oocytes. As to the kind of experiment: cells. The assay is classed as cell-based, Xenopus laevis. The source says:
The orientation of PfCRT in the parasite’s DV membrane, and also in the oocyte plasma membrane, is such that its N- and C-termini extend into the cytosol. The oocytes were suspended in a reaction buffer adjusted to pH 5.5 to mimic the pH of the DV lumen[1],[2]. In this scenario, the transport of a substrate via PfCRT from the acidic extracellular solution into the oocyte cytosol[15] is analogous to the parasite’s PfCRT-mediated efflux of a substrate from the acidic DV and into the cytosol. Unless specified otherwise, this is the direction in which substrate transport was measured in the oocyte assays.
(§1) Unless specified otherwise, the transport assays were conducted over 1.5 h at 27.5 °C and the reaction buffer was ND96 (96 mM NaCl, 2 mM KCl, 1 mM MgCl2, 1.8 mM CaCl2, 10 mM MES and 10 mM Tris-base) at pH 5.5.
Ten oocytes were washed twice with the relevant ND96 buffer. […] The assay was terminated by removing the reaction buffer and washing the oocytes with ice-cold ND96 buffer. The oocytes were lysed in 10% (w/v) sodium dodecyl sulfate (SDS) and the radioactivity accumulated within each oocyte was measured with a MicroBeta^2 microplate liquid scintillation analyser (PerkinElmer).
(§2) At least four independent experiments were performed (on different days and using oocytes from different frogs), and within each experiment measurements were made from ten oocytes per treatment.

Assay [2] relates to non-expressing oocytes. The assay is classed as cell-based, Xenopus laevis. On the procedure:
as §1
The intracellular concentrations were calculated using previous estimates of the volume of stage V–VI oocytes (~400 nL[60]). […] The oocytes were injected with VF-6 suspended in 25 nL ND96 buffer adjusted to pH 5.0, 5.5, 6.0 or 7.0, which corresponded to the injection of 2.5–250 fmol of H^+. The Na^+-dependence of the trans-stimulatory effect of VF-6 was assessed by injecting the oocytes with VF-6 suspended in ND96 buffer (pH 5.5) or a Na^+-free version of this buffer (the Na^+ was replaced with choline).
as §2

In assay [3] the target is T1, PfCRT^Ecu1110 (Plasmodium falciparum, UniProt Q9N623, A220S/I356L/K76T/N326D). As to the kind of experiment: [3H]CQ uptake into Xenopus oocytes, cis-inhibition by unlabelled solute. The following applies: for PfCRT-mediated [3H]CQ transport, cis-inhibition (% PfCRTEcu1110 control): PfCRTEcu1110 oocytes, background [3H]CQ accumulation subtracted, normalised to oocyte type control; for [3H]CQ transport (% PfCRTEcu1110 control), cis-inhibition, PfCRTEcu1110: PfCRT-mediated component (background subtracted), sheet title says normalised to PfCRTDd2 control, mean ± SEM, SEM. The class given is cell-based. A digest of the protocol:
(§3)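 Inward transport into oocyte cytosol from pH 5.5 medium models PfCRT efflux from the acidic digestive vacuole. Incubation 1.5 h, 27.5 °C; termination by ice-cold washes; lysate radioactivity counted.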

The target in assay [4] is T2, PfCRT^Dd2 (Plasmodium falciparum, UniProt Q9N623, A220S/I356T/K76T/M74I/N326S/N75E/Q271E/R371I). Described as above. The class given is cell-based. The following applies: PfCRTDd2 oocytes, background [3H]CQ accumulation subtracted, normalised to oocyte type control. A digest of the protocol: as §3
Assay [5] concerns the target T1, PfCRT^Ecu1110. As to the kind of experiment: cell-based. The class given is cell-based. As to conditions: for PfCRT-mediated [3H]CQ transport, trans-stimulation (% PfCRTEcu1110 control): PfCRTEcu1110 oocytes, normalised to oocyte type control; for [3H]CQ transport (% PfCRTDd2 control), trans-stimulation, PfCRTEcu1110: PfCRT-mediated component (background subtracted), sheet title says normalised to PfCRTDd2 control, mean ± SEM, SEM. A digest of the protocol: (§4)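 Oocytes (ten per treatment, ≥4 independent frogs/days) were preloaded by injecting VF-6 in 25 nL ND96 at pH 5.0, 5.5, 6.0 or 7.0, or Na^+-free choline buffer, then uptake run 1.5 h, 27.5 °C, ND96 pH 5.5 by default. Internal concentrations assumed ~400 nL oocyte volume.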

In a further assay the target is PfCRT^3D7 (Plasmodium falciparum, UniProt Q8IBZ9). As to the kind of experiment: cell-based. The assay is classed as cell-based. As to conditions: for PfCRT-mediated [3H]CQ transport, trans-stimulation (% PfCRT3D7 control): PfCRT3D7 oocytes, normalised to oocyte type control; for [3H]CQ transport, PfCRT3D7 (% PfCRT3D7 control): trans-stimulation, solute 45 mM injected (estimated intracellular). The procedure, abridged: as §4

The next assay addresses T3, PfNT1 (Plasmodium falciparum, UniProt Q8IDM6).
T3 construct: expressed in transfected cells; host or cells: Xenopus laevis oocytes (stage V-VI), cRNA-injected
Briefly: cell-based. The class given is cell-based. As to conditions: trans-stimulation, solute 45 mM injected (estimated intracellular). The procedure, abridged:
as §4

For assay [6], the target named is T2, PfCRT^Dd2. Briefly: cell-based. The assay is classed as cell-based. The following applies: for PfCRT-mediated [3H]CQ transport, trans-stimulation (% PfCRTDd2 control): PfCRTDd2 oocytes, normalised to oocyte type control; for [3H]CQ transport (% PfCRTDd2 control), trans-stimulation, PfCRTDd2: PfCRT-mediated component (background subtracted), mean ± SEM, SEM. The procedure, abridged:
as §4

Where [7] appears, read: [test solute]i = 5 mM (intracellular).
[8] abbreviates: [test solute]i = 45 mM (intracellular; 30 mM for some solutes due to solubility).
[9] abbreviates: [test solute]i = 5 mM (injected).
Setting [10] is: [test solute]i = 45 mM (30 mM for some solutes due to solubility).

T2 sequence (Q9N623 whole entry A220S/I356T/K76T/M74I/N326S/N75E/Q271E/R371I): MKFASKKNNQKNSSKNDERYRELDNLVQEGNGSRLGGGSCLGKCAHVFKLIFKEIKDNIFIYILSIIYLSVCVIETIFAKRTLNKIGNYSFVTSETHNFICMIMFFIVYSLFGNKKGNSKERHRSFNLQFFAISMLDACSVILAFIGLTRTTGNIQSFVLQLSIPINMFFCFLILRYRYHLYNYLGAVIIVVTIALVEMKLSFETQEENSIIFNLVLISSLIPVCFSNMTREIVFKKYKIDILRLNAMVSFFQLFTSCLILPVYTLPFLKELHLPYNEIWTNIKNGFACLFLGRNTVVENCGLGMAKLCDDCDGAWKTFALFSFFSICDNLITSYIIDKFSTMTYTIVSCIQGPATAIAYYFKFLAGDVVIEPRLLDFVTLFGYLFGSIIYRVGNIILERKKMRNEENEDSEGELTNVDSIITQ
T3 sequence (Q8IDM6 whole entry): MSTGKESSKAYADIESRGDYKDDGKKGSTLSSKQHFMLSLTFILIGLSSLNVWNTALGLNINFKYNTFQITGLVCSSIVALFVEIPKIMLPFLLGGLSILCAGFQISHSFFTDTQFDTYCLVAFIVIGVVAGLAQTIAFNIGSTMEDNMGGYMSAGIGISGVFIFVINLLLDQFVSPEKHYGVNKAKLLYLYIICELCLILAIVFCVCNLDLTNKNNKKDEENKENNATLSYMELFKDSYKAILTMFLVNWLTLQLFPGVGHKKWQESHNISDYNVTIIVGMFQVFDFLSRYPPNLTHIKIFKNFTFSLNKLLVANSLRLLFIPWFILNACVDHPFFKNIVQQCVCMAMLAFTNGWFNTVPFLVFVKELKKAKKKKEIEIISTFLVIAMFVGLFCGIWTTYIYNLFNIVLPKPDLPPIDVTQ
Sequence of PfCRT^3D7 (Q8IBZ9 59-398): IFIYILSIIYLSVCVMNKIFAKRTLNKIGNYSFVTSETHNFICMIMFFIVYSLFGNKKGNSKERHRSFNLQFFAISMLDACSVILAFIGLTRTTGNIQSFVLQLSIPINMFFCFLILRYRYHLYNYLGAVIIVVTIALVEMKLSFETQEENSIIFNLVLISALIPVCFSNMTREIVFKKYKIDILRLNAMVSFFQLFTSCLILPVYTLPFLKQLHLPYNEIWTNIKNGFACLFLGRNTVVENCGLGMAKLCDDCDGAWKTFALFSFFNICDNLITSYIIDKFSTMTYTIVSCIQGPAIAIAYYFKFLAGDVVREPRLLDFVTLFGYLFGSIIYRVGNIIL
T1 sequence (Q9N623 whole entry A220S/I356L/K76T/N326D): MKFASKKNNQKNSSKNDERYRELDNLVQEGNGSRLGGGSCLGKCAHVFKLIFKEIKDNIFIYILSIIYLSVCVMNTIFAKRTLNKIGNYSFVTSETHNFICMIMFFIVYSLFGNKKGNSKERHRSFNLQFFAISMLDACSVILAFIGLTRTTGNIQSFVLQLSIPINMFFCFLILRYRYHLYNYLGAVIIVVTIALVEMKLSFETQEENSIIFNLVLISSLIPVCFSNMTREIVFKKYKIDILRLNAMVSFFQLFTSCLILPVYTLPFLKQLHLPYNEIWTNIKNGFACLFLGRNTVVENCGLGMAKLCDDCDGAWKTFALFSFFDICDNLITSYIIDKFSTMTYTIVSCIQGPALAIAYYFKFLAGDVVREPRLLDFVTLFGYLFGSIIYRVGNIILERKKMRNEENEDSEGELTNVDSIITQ

For the compound `C[N+](C)(C)CCO` [Choline], the “Cis-inhibition data: total [3H]CQ transport, normalised to the oocyte type control” value in the assay with non-expressing oocytes [1] was 100 ± 5.4 and 99 ± 4.3 and 98 ± 3.6. The “Trans-stimulation data: total [3H]CQ transport, normalised to the oocyte type control” value in the assay on non-expressing oocytes [2] is 99 ± 2.8 and 100 ± 2.6.

Regarding `NCCCNCCCCNCCCN` [Spermine], the “Cis-inhibition data: total [3H]CQ transport, normalised to the oocyte type control” value in the assay on non-expressing oocytes [1] is 99 ± 3.7 and 99 ± 4.1 and 100 ± 4.8. For the same compound, the “Trans-stimulation data: total [3H]CQ transport, normalised to the oocyte type control” value in the assay with non-expressing oocytes [2] is 99 ± 3.8 and 98 ± 2.9.

As to YFPHF [YF-5], the “PfCRT-mediated [3H]CQ transport, cis-inhibition (% PfCRTEcu1110 control)” value turned out to be 63 ± 3.5 % PfCRTEcu1110 control on PfCRT^Ecu1110 [3] ([test solute] = 0.5 mM), 48 ± 1.0 % PfCRTEcu1110 control on PfCRT^Ecu1110 [3] ([test solute] = 1 mM) and 32 ± 2.1 % PfCRTEcu1110 control on PfCRT^Ecu1110 [3] ([test solute] = 2 mM). For the same compound, the “[3H]CQ transport (% PfCRTEcu1110 control), cis-inhibition, PfCRTEcu1110” value at PfCRT^Ecu1110 [3] ([test solute] = 0.5 mM) was 20 ± 0.4 % PfCRTEcu1110 control; on PfCRT^Ecu1110 [3] ([test solute] = 1 mM), 15 ± 0.1 % PfCRTEcu1110 control; on PfCRT^Ecu1110 [3] ([test solute] = 2 mM) it was 10 ± 0.3 % PfCRTEcu1110 control. Further, the “PfCRT-mediated [3H]CQ transport, cis-inhibition (% PfCRTDd2 control)” value at PfCRT^Dd2 [4] ([test solute] = 0.5 mM) worked out at 53 ± 3.1 % PfCRTDd2 control; at PfCRT^Dd2 [4] ([test solute] = 1 mM), 39 ± 2.1 % PfCRTDd2 control; at PfCRT^Dd2 [4] ([test solute] = 2 mM), 7.2 ± 0.1 % PfCRTDd2 control. The entries for the “PfCRT-mediated [3H]CQ transport, trans-stimulation (% PfCRTEcu1110 control)” value at PfCRT^Ecu1110 [5] (setting [7]) and on PfCRT^Ecu1110 [5] (setting [8]) were 120 ± 2.7 % PfCRTEcu1110 control and 131 ± 3.6 % PfCRTEcu1110 control, respectively. Besides, the “[3H]CQ transport (% PfCRTDd2 control), trans-stimulation, PfCRTEcu1110” value on PfCRT^Ecu1110 [5] (setting [9]) was found to be 37 ± 1.5 % PfCRTEcu1110 control; on PfCRT^Ecu1110 [5] (setting [10]), 40 ± 1.5 % PfCRTEcu1110 control. The “PfCRT-mediated [3H]CQ transport, trans-stimulation (% PfCRT3D7 control)” value at PfCRT^3D7 (setting [7]) came out at 128 ± 2.3 % PfCRT3D7 control; at PfCRT^3D7 (setting [8]), 147 ± 4.2 % PfCRT3D7 control. The “[3H]CQ transport, PfCRT3D7 (% PfCRT3D7 control)” value at PfCRT^3D7 (Experiment 1) is given as 142.23 % PfCRT3D7 control; on PfCRT^3D7 (Experiment 2) it was 155.33 % PfCRT3D7 control; on PfCRT^3D7 (Experiment 3) it was 162.85 % PfCRT3D7 control; at PfCRT^3D7 (Experiment 4), 149.32 % PfCRT3D7 control. Besides, the “[3H]CQ transport, PfNT1 (% PfCRTDd2 control)” value is reported as 2.73 % PfCRTDd2 control on PfNT1 (Experiment 1), 2.48 % PfCRTDd2 control at PfNT1 (Experiment 2), 2.58 % PfCRTDd2 control on PfNT1 (Experiment 3) and 2.37 % PfCRTDd2 control at PfNT1 (Experiment 4). Further, the “PfCRT-mediated [3H]CQ transport, trans-stimulation (% PfCRTDd2 control)” value at PfCRT^Dd2 [6] (setting [7]) was 97 ± 3.4 % PfCRTDd2 control; on PfCRT^Dd2 [6] (setting [8]), 113 ± 2.4 % PfCRTDd2 control. Further, the “[3H]CQ transport (% PfCRTDd2 control), trans-stimulation, PfCRTDd2” value at PfCRT^Dd2 [6] (setting [9]) stood at 97 ± 3.4 % PfCRTDd2 control; on PfCRT^Dd2 [6] (setting [10]), 113 ± 2.4 % PfCRTDd2 control.

Values taken from article PMC7413254 (Nature Communications, 2020).
